# Laboratory results from patent publication US20250375452A1 (AMGEN INC., priority 2021, published 2025).
# What was measured:
# [1] = Phase 1 fixed-sequence study, sotorasib with omeprazole under fasted conditions; type: in vivo, human
# [2] = Phase 1 fixed-sequence crossover study, sotorasib with famotidine or omeprazole under fed conditions; type: in vivo, human; details: for decrease of sotorasib AUC / decrease of sotorasib Cmax: fed conditions
# Procedure: Safety and tolerability monitoring was performed throughout the study.
# A total of […] healthy subjects (1 woman and 13 men) were enrolled in the study. Thirteen out of the 14 subjects received all treatments and completed the study.
# [3] = Phase 1 fixed-sequence study, sotorasib with rifampin; type: in vivo, human
# [4] = test system: extracellular signal-regulated kinase (ERK); details: preclinical studies; cited from earlier work
# [5] = Phase 1 fixed-sequence study, digoxin with sotorasib; type: in vivo, human
# Procedure: Blood samples for digoxin PK were collected predose and up to 144 hours post-digoxin dose. Samples were measured using validated high-performance liquid chromatography tandem mass spectrometry methods.
# [6] = Phase 1 fixed-sequence study, midazolam with sotorasib; details: 2 mg midazolam coadministered with 960 mg sotorasib after 14 days of daily sotorasib vs midazolam alone, 5 subjects
# [7] = coadministration with omeprazole vs sotorasib alone, fasted state
# [8] = famotidine 10 hours prior to and 2 hours after a single dose of sotorasib
# [9] = repeat doses of omeprazole with a single dose of sotorasib
# [10] = coadministration with a single dose of sotorasib vs digoxin alone
# [11] = with sotorasib vs digoxin alone
smiles,measurement,setting,value
"C=CC(=O)N1CCN(c2nc(=O)n(-c3c(C)ccnc3C(C)C)c3nc(-c4c(O)cccc4F)c(F)cc23)[C@@H](C)C1 (atropisomer, axis not shown) [sotorasib, 6-fluoro-7-(2-fluoro-6-hydroxyphenyl)-(1M)-1-[4-methyl-2-(propan-2-yl)pyridin-3-yl]-4-[(2S)-2-methyl-4-(prop-2-enoyl)piperazin-1-yl]pyrido[2,3-d]pyrimidin-2(1H)-one]",safety and tolerability,"[1]; coadministered with 40 mg omeprazole or administered alone, healthy subjects",safe and well tolerated
same,decrease of sotorasib AUCinf,[1]; [7],42%
same,decrease of sotorasib Cmax,[1]; [7],57%
same,"Mean terminal half-life (t1/2), coadministration compared to alone","[1]; with omeprazole vs sotorasib alone, fasted",similar
same,safety and tolerability,"[2]; 960 mg sotorasib with single dose 40 mg famotidine and after multiple daily 40 mg omeprazole, fed, healthy subjects",safe and well tolerated
same,decrease of sotorasib AUC,[2]; [8],38%
same,decrease of sotorasib Cmax,[2]; [8],35%
same,decrease of sotorasib AUC,[2]; [9],57%
same,decrease of sotorasib Cmax,[2]; [9],65%
same,safety and tolerability,"[3]; coadministered with 600 mg rifampin or administered alone, healthy subjects",safe and well tolerated
same,CYP3A4 substrate status,"[3]; inferred from multiple doses of rifampin, consistent with in vitro data",is a CYP3A4 substrate
same,OATP1B1 substrate status,[3]; inferred from single dose of rifampin,not a substrate of OATP1B1
same,decrease of sotorasib AUCinf,[3]; multiple doses of rifampin,51%
same,decrease of sotorasib Cmax,[3]; multiple doses of rifampin,35%
same,phosphorylation of extracellular signal-regulated kinase (ERK),[4],inhibited nearly all detectable phosphorylation
C[C@H]1O[C@@H](O[C@H]2[C@@H](O)C[C@H](O[C@H]3[C@@H](O)C[C@H](O[C@H]4CC[C@@]5(C)[C@H](CC[C@@H]6[C@@H]5C[C@@H](O)[C@]5(C)[C@@H](C7=CC(=O)OC7)CC[C@]65O)C4)O[C@@H]3C)O[C@@H]2C)C[C@H](O)[C@@H]1O [digoxin],increase of digoxin AUCinf,[5]; [10],approximately 21%
same,increase of digoxin Cmax,[5]; [10],~91%
same,safety and tolerability,[5]; single doses of 0.5 mg digoxin alone or coadministered with 960 mg sotorasib,safe and well tolerated
same,"Digoxin mean terminal half-life (t1/2), coadministration compared to alone",[5]; [11],similar
same,"Digoxin median time to maximal plasma concentration (tmax), coadministration compared to alone",[5]; [11],similar
Cc1ncc2n1-c1ccc(Cl)cc1C(c1ccccc1F)=NC2 [midazolam],decrease of midazolam AUV,[6],53%
same,decrease of midazolam Cmax,[6],48%
